Data on 3 compounds can be found in patent US7205296B2, “Substituted 2H-1,3-benzoxazin-4(3H)-ones” (Portola Pharmaceuticals, Inc., priority 2004, dated 2007).

Bounds are passed on as bounds.

Assay [1] deals with T1, platelet ADP receptors (Homo sapiens, UniProt Q9H244).
T1 construct: endogenous in cells; host or cells: whole apyrase-washed human platelets (outdated from blood banks, or fresh)
Description: ARB assay: inhibition of [3H]2-MeS-ADP binding to platelets. Conditions: IC50 class, [3H]2-MeS-ADP binding to whole human platelets. As for the experimental part: II. Inhibition of [^3H]2-MeS-ADP Binding to Platelets
Utilizing the second assay the potency of inhibition of such compounds with respect to [^3H]2-MeS-ADP binding to whole platelets is determined. [^3H]2-MeS-ADP binding experiments are routinely performed with outdated human platelets collected by standard procedures at hospital blood banks. Apyrase-washed outdated platelets are prepared as follows (all steps at room temperature, if not indicated otherwise):
Outdated platelet suspensions are diluted with 1 volume of CGS and platelets pelleted by centrifugation at 1900×g for 45 minutes. Platelet pellets are resuspended at 3-6×10^9 platelets/ml in CGS containing 1 U/ml apyrase (grade V, Sigma, St. Louis, Mo.) and incubated for 15 minutes at 37° C. After centrifugation at 730×g for 20 minutes, pellets are resuspended in Hepes-Tyrode's buffer containing 0.1% BSA (Sigma, St. Louis, Mo.) at a concentration of 6.66×10^8 platelets/ml. Binding experiments are performed after >45 minutes resting of the platelets.
Alternatively, binding experiments are performed with fresh human platelets prepared as described in I. (Inhibition of ADP-Mediated Platelet Aggregation in vitro), except that platelets are resuspended in Hepes-Tyrode's buffer containing 0.1% BSA (Sigma, St. Louis, Mo.) at a concentration of 6.66×10^8 platelets/ml. Very similar results are obtained with fresh and outdated platelets.
A platelet ADP receptor binding assay using the tritiated potent agonist ligand [^3H]2-MeS-ADP (Jantzen, H. M. et al. (1999) Thromb. Hemost. 81:111–117) has been adapted to the 96-well microtiter format. In an assay volume of 0.2 ml Hepes-Tyrode's buffer with 0.1% BSA and 0.6% DMSO, 1×10^8 apyrase-washed platelets are preincubated in 96-well flat bottom microtiter plates for 5 minutes with serial dilutions of test compounds before addition of 1 nM [^3H]2-MeS-ADP ([^3H]2-methylthioadenosine-5′-diphosphate, ammonium salt; specific activity 48–49 Ci/mmole, obtained by custom synthesis from Amersham Life Science, Inc., Arlington Heights, Ill., or NEN Life Science Products, Boston, Mass.). Total binding is determined in the absence of test compounds. Samples for nonspecific binding may contain 10^−5 M unlabelled 2-MeS-ADP (RBI, Natick, Mass.). After incubation for 15 minutes at room temperature, unbound radioligand is separated by rapid filtration and two washes with cold (4–8° C.) Binding Wash Buffer (10 mM Hepes pH 7.4, 138 mM NaCl) using a 96-well cell harvester (Minidisc 96, Skatron Instruments, Sterling, Va.) and 8×12 GF/C glassfiber filtermats (Printed Filtermat A, for 1450 Microbeta, Wallac Inc., Gaithersburg, Md.). The platelet-bound radioactivity on the filtermats is determined in a scintillation counter (Microbeta 1450, Wallac Inc., Gaithersburg, Md.). Specific binding is determined by […] binding, and specific binding in the presence of test compounds is expressed as % of specific binding in the absence of test compounds dilutions.

In assay [2] the test system is ADP-induced human platelet aggregation. The assay can be described thus: PRP assay: inhibition of ADP-mediated platelet aggregation in vitro. It is filed as cell-based. Conditions: IC50 class. How it is done: I. Inhibition of ADP-Mediated Platelet Aggregation in vitro
The effect of testing the compound according to the invention on ADP-induced human platelet aggregation is preferably assessed in 96-well microtiter assay (see generally the procedures in Jantzen, H. M. et al. (1999) Thromb. Hemost. 81:111–117). Human venous blood is collected from healthy, drug-free volunteers into ACD (85 mM sodium citrate, 111 mM glucose, 71.4 mM citric acid) containing PGI2 (1.25 ml ACD containing 1.6 μM PGI2/10 ml blood; PGI2 was from Sigma, St. Louis, Mo.). Platelet-rich plasma (PRP) is prepared by centrifugation at 160×g for 20 minutes at room temperature. Washed platelets are prepared by centrifuging PRP for 10 minutes at 730×g and resuspending the platelet pellet in CGS (13 mM sodium citrate, 30 mM glucose, 120 mM NaCl; 2 ml CGS/10 ml original blood volume) containing 1 U/ml apyrase (grade V, Sigma, St. Louis, Mo.). After incubation at 37° C. for 15 minutes, the platelets are collected by centrifugation at 730×g for 10 minutes and resuspended at a concentration of 3×10^8 platelets/ml in Hepes-Tyrode's buffer (10 mM Hepes, 138 mM NaCl, 5.5 mM glucose, 2.9 mM KCl, 12 mM NaHCO3, pH 7.4) containing 0.1% bovine serum albumin, 1 mM CaCl2 and 1 mM MgCl2. This platelet suspension is kept >45 minutes at 37° C. before use in aggregation assays.
Inhibition of ADP-dependent aggregation is preferably determined in 96-well flat-bottom microtiter plates using a microtiter plate shaker and plate reader similar to the procedure described by Frantantoni et al., Am. J. Clin. Pathol. 94, 613 (1990). All steps are performed at room temperature. The total reaction volume of 0.2 ml/well includes in Hepes-Tyrodes buffer/0.1% BSA: 4.5×10^7 apyrase-washed platelets, 0.5 mg/ml human fibrinogen (American Diagnostica, Inc., Greenwich, Conn.), serial dilutions of test compounds (buffer for control wells) in 0.6% DMSO. After about 5 minutes preincubation at room temperature, ADP is added to a final concentration of 2 μM which induces submaximal aggregation. Buffer is added instead of ADP to one set of control wells (ADP^− control). The OD of the samples is then determined at 490 nm using a microtiter plate reader (Softmax, Molecular Devices, Menlo Park, Calif.) resulting in the 0 minute reading. The plates are then agitated for 5 min on a microtiter plate shaker and the 5 minute reading is obtained in the plate reader. Aggregation is calculated from the decrease of OD at 490 nm at t=5 minutes compared to t=0 minutes and is expressed as % of the decrease in the ADP control samples after correcting for changes in the unaggregated control samples.

T1 sequence (Q9H244 whole entry): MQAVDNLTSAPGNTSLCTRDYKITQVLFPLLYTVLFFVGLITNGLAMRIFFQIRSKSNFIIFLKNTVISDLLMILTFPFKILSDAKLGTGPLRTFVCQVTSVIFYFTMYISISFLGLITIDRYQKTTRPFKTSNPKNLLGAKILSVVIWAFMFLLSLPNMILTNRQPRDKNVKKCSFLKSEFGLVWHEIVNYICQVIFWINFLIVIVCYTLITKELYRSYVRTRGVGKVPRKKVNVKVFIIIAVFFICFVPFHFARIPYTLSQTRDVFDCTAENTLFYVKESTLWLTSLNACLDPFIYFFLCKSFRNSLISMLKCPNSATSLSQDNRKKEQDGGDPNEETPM

As usually defined, the IC50 is the concentration that gives 50% inhibition. Read a high IC50 as lower potency. Consider `CNc1cc2c(cc1Cl)C(=O)N(c1ccc(NC(=O)NS(=O)(=O)c3ccc(Cl)s3)cc1)CO2` [Example 51, 1-(5-chlorothiophen-2-ylsulfonyl)-3-(4-(6-chloro-7-(methylamino)-4-oxo-2H-benzo[e][1,3]oxazin-3(4H)-yl)phenyl)urea], for which the IC50 in assay [1] is < 0.05 µM; in assay [2], > 30 µM.
In the case of `CNc1cc2c(cc1F)C(=O)N(c1ccc(C(=O)NS(=O)(=O)c3ccc(Cl)s3)cc1)CO2` [Example 56, N-(5-chlorothiophen-2-ylsulfonyl)-4-(6-fluoro-7-(methylamino) -4-oxo-2H-benzo[e] [1,3]oxazin-3(4H)-yl) benzamide], the IC50 is < 0.05 µM in assay [1] and < 10 µM in assay [2].
For `CNc1cc2c(cc1F)C(=O)N(c1ccc(C(=O)NS(=O)(=O)c3ccc(Cl)s3)c(F)c1)CO2` [Example 57, N-(5-chlorothiophen-2-ylsulfonyl)-2-fluoro-4-(6-fluoro-7-(methylamino)-4-oxo-2H-benzo[e][1,3]oxazin-3(4H)-yl) benzamide], in that order: < 0.05 µM and > 30 µM.
